Some test systems named below: MOLT-4 leukemia; SK-MEL-5 melanoma; U251 CNS; SNB-19 CNS; NCI-H460 lung; BT-549 breast; SN12C renal; DU-145 prostate; HCT-116 colon; SK-MEL-28 melanoma.
Common to all, as to assay: DTP human tumour cell line panel, 48 h

Structures are written as SMILES.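 48-hour exposure; five concentrations; linearly interpolated endpoints. Here, GI50 denotes the concentration required for 50% inhibition of growth. TGI marks complete inhibition of growth.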

What is called GI50 is the concentration at which growth is held to half of that of the control. For orientation: TGI means the concentration at which net growth stops. Read a high TGI as lower sensitivity of the cells. `NC1=NC(=O)/C(=C/c2ccc3ncccc3c2)S1`: the GI50 is > 25 µM in the test with MOLT-4 leukemia; > 25 µM in the test on SK-MEL-5 melanoma; > 25 µM in the test on U251 CNS; > 25 µM in the test on SNB-19 CNS; > 25 µM in the test with NCI-H460 lung; > 18.8 µM in the test with BT-549 breast. The GI50 in the test on SN12C renal is > 25 µM; in the test on DU-145 prostate, > 25 µM; in the test on HCT-116 colon it was > 13.8 µM; with SK-MEL-28 melanoma, > 25 µM. Besides, the TGI with MOLT-4 leukemia, in the test with SK-MEL-5 melanoma, in the test with U251 CNS, with SNB-19 CNS, with NCI-H460 lung and in the test on BT-549 breast was > 25 µM in each case. For the same molecule, the TGI with SN12C renal, in the test on DU-145 prostate, in the test with HCT-116 colon and in the test with SK-MEL-28 melanoma was > 25 µM in each case.

Regarding `C(=Nc1cnc2ccccc2c1)c1ccc2ccccc2n1`, the TGI in the test on MOLT-4 leukemia, in the test on SK-MEL-5 melanoma, with U251 CNS, with SNB-19 CNS, with NCI-H460 lung and in the test on BT-549 breast was > 100 µM throughout. Further, the TGI in the test with SN12C renal, in the test on DU-145 prostate, with HCT-116 colon and in the test with SK-MEL-28 melanoma was > 100 µM in each case.

Turning to `Nc1nnnc2nc[nH]c12`, the GI50 with MOLT-4 leukemia was 2.62 µM; in the test on SK-MEL-5 melanoma it was 2.02 µM; in the test on U251 CNS, 2.39 µM; in the test on SNB-19 CNS it was 6.17 µM; in the test with NCI-H460 lung, 2.46 µM; with BT-549 breast, 1.03 µM. Also, the GI50 in the test on SN12C renal was 2.25 µM; in the test with DU-145 prostate it was 0.8 µM; in the test on HCT-116 colon, 0.639 µM. Further, the TGI with MOLT-4 leukemia was > 100 µM; with SK-MEL-5 melanoma it was 8.22 µM; with U251 CNS, > 100 µM; with SNB-19 CNS it was > 100 µM; with NCI-H460 lung it was > 100 µM; with BT-549 breast, > 25.2 µM. Moreover, the TGI with SN12C renal is > 100 µM; in the test on DU-145 prostate, > 100 µM; in the test on HCT-116 colon it was > 100 µM; with SK-MEL-28 melanoma, > 45.8 µM.
